The values that follow come from patent US8084399B2, “Process for screening of a binding amphiphilic peptides specific for hairpin RNA” (priority 2009, dated 2011).

The target in one data set is RRE hairpin RNA. The data set is described as follows: Fluorescence anisotropy competition with Rev-N-rhodamine probe, binding to RRE hairpin RNA. More on the design: species or system HIV. The following applies: 20° C., pH 7.4, read-out: Dissociation constant, RRE. As to the method: (§1) Binding force to each target hairpin RNA (IRES, RRE, TAR and 16S A-site) was measured by fluorescence polarization using alanine scanned peptide library (1b-1h).
(§2) Particularly, […] of each target RNA was prepared at the concentration of 10 mM, which stood at 65° C. for 10 minutes and then cooled down slowly at room temperature, leading to folding. The amphiphilic peptide was prepared respectively at the concentration of […], which were maintained at 0° C. As a probe, rev peptide labeled with rhodamine (Rev-N-rhodamine) emitting […] fluorescence was prepared at the concentration of 10 mM. Buffer was composed of 140 mM NaCl, 5 mM KCl, 1 mM MgCl2, and 20 mM HEPES (N-2-Hydroxyethylpiperazine-N′-2-Ethanesulfonic Acid, pH 7.4). Fluorescence Anisotropy was measured using AMINCO-Bowman Series Luminescence Spectrometer at 20° C. Ten nM of the probe was added in […] of buffer, to which target RNA was added to induce interaction between the probe and the target RNA. At that time, anisotropy value increased. Then, the synthesized peptide competing with the probe for binding site was added thereto with increasing the concentration slowly. Changes of fluorescence polarization were measured until fluorescence polarization reached as low as the beginning. Considering the concentration and amount of the peptide added, binding force to target RNA was calculated. That is, the binding strength between target RNA and peptide was determined according to the following KaleidaGraph. [Peptide]=Kd(Amax−A)/[Kd(A−A0)+1]×[RNA]−Kd(A−A0)^2[Probe]0/(Amax−A)(Amax−A0)
(§3) Herein, [Peptide] indicates the concentration of peptide, [RNA] indicates the concentration of target RNA, and [Probe]0 indicates the concentration of probe. A is the value of fluorescence anisotropy of sample, Amax is the value of totally bound tracer, and A0 is the value of totally free tracer.

The next data set has as its target TAR hairpin RNA. The data set is described as follows: Fluorescence anisotropy competition with Rev-N-rhodamine probe, binding to TAR hairpin RNA. On the set-up: species or system HIV. Conditions: for Kd: fluorescence anisotropy, 20° C., pH 7.4, read-out: Dissociation constant, TAR. As to the method: as §1, §2, §3
A further data set deals with 16S ribosomal RNA A-site. The data set is described as follows: Fluorescence anisotropy competition with Rev-N-rhodamine probe, binding to 16S A-site. The following applies: 20° C., pH 7.4, read-out: Dissociation constant, 16S A-site. As to the method: as §1, §2, §3
In the next data set the test system is IRES domain IV hairpin. Kind of data set: Fluorescence anisotropy competition with Rev-N-rhodamine probe, binding to IRES hairpin. More on the design: species or system HCV. The following applies: for differentiation coefficient (IRES): (mean Kd to other hairpin RNA)/(Kd to one hairpin RNA); for Kd: fluorescence anisotropy, 20° C., pH 7.4, read-out: Dissociation constant, IRES. As to the method: as §1, §2, §3
Background: Fluorescence polarisation rises when a labelled molecule tumbles more slowly, as on binding a larger partner.

The nature of data set [1]: Circular dichroism (CD), percentage of alpha-helix. It counts as physicochemical. The following applies: CD at 20° C., condition not given; for Alpha-helical rate (%), second value of pair: value after the slash; for Alpha-helical rate (%), first value of pair: value before the slash. Here is the method: To investigate alpha-helix of the amphiphilic peptide (1a-1h), circular dichroism (CD) was performed. Particularly, CD was measured at 20° C. by using JASCO model J715 spectropolarimeter. Scanning was performed at 190-250 nm three times (bandwidth: 1 nm, datapitch: 0.5 nm, speed: 100 nm/min), which were averaged to obtain CD data. Spectrum was corrected by measuring background spectrum. CD signal was recorded after modulating thereof with mean residue ellipticity [Q]. Percentage (%) of alpha-helix(fn) was calculated by the following formula. [Q]=Qobs[MRW/(10lc)]
MRW=mean residue weight (dividing molecular weight by the number of peptide bond, l=pathway length (cm), c=concentration (mg/mL). fn=([Q]222−[Q]coil)/([Q]helix−[Q]coil) [Q]helix=−40,000[…]+100t [Q]coil=640−45t
[Q]222=mean residue ellipticity at 222 nm (deg cm2 mol-1), [Q]helix=ellipticity of peptide having complete helical structure, [Q]coil=ellipticity of peptide having complete random coil structure, n=number of amino acid, t=° C.

Setting [2] is: compared with the original peptide.

Where no end group is shown, it is not given here. [ ]: non-standard residue; d: D form. Orn = NCCC[C@H](N)C(=O)O; Dab = NCC[C@H](N)C(=O)O; Dap = NC[C@H](N)C(=O)O

Consider “LAKLLKLLKKLLKLKG [1b, alanine scanned first generation peptide]”, for which the Kd at RRE hairpin RNA is 140 nM; on TAR hairpin RNA it was 16 nM; on 16S ribosomal RNA A-site it was 160 nM; on IRES domain IV hairpin it was 53 nM. In addition, in the data set with IRES domain IV hairpin, the “differentiation coefficient (IRES)” value was 2.0. In addition, the “Alpha-helical rate (%), second value of pair” value in data set [1] was 44%. The “Alpha-helical rate (%), first value of pair” value in data set [1] stood at 9%.

Take “LKALLKLLKKLLKLKG [1c, alanine scanned first generation peptide]”: the Kd worked out at 56 nM at RRE hairpin RNA, 87 nM at TAR hairpin RNA, 92 nM at 16S ribosomal RNA A-site and 62 nM on IRES domain IV hairpin. Also, the “differentiation coefficient (IRES)” value in the data set on IRES domain IV hairpin is 1.3. Besides, the “Alpha-helical rate (%), second value of pair” value in data set [1] came to 42%. For the same substance, in data set [1], the “Alpha-helical rate (%), first value of pair” value was 10%.

On to “LKKLLALLKKLLKLKG [peptide 1d, alanine scanned first generation peptide]”, for which the Kd was 150 nM at RRE hairpin RNA, 150 nM at TAR hairpin RNA, 160 nM at 16S ribosomal RNA A-site and 150 nM on IRES domain IV hairpin. Moreover, the “binding strength to TAR, in words” value with TAR hairpin RNA (setting [2]) was “three fold binding strength”. For the same substance, the “differentiation coefficient (IRES)” value in the data set with IRES domain IV hairpin is reported as 1.0. Further, in the data set on IRES domain IV hairpin (setting [2]), the “binding strength to IRES, in words” value was “reduced binding strength”. For the same substance, in data set [1], the “Alpha-helical rate (%), second value of pair” value is listed as 47%. For the same substance, in data set [1], the “Alpha-helical rate (%), first value of pair” value is 12%.

As for “LKKLLDabLLKKLLDapLAG (LKKLL[Dab]LLKKLL[Dap]LAG-NH2; N-terminus assumed; SMILES CC(C)C[C@H](NC(=O)[C@H](CN)NC(=O)[C@H](CC(C)C)NC(=O)[C@H](CC(C)C)NC(=O)[C@H](CCCCN)NC(=O)[C@H](CCCCN)NC(=O)[C@H](CC(C)C)NC(=O)[C@H](CC(C)C)NC(=O)[C@H](CCN)NC(=O)[C@H](CC(C)C)NC(=O)[C@H](CC(C)C)NC(=O)[C@H](CCCCN)NC(=O)[C@H](CCCCN)NC(=O)[C@@H](N)CC(C)C)C(=O)N[C@@H](C)C(=O)NCC(N)=O) [2l, second generation peptide, hydrophilic face modified]”, the Kd on RRE hairpin RNA was found to be 14 nM; on TAR hairpin RNA it was 16 nM; on 16S ribosomal RNA A-site, 14 nM; on IRES domain IV hairpin, 1.1 nM. In the data set with IRES domain IV hairpin, the “differentiation coefficient (IRES)” value was 13. Moreover, the “Alpha-helical rate (%), second value of pair” value in data set [1] is 50%. For the same substance, in data set [1], the “Alpha-helical rate (%), first value of pair” value is listed as 40%.

For “LKKLLDabLLKKLLKLAG (LKKLL[Dab]LLKKLLKLAG-NH2; N-terminus assumed; SMILES CC(C)C[C@H](NC(=O)[C@H](CCCCN)NC(=O)[C@H](CC(C)C)NC(=O)[C@H](CC(C)C)NC(=O)[C@H](CCCCN)NC(=O)[C@H](CCCCN)NC(=O)[C@H](CC(C)C)NC(=O)[C@H](CC(C)C)NC(=O)[C@H](CCN)NC(=O)[C@H](CC(C)C)NC(=O)[C@H](CC(C)C)NC(=O)[C@H](CCCCN)NC(=O)[C@H](CCCCN)NC(=O)[C@@H](N)CC(C)C)C(=O)N[C@@H](C)C(=O)NCC(N)=O) [2b, second generation peptide, hydrophilic face modified]”, the Kd was determined as 10 nM on RRE hairpin RNA, 7.3 nM at TAR hairpin RNA, 13 nM at 16S ribosomal RNA A-site and 1.6 nM on IRES domain IV hairpin. Also, the “differentiation coefficient (IRES)” value in the data set on IRES domain IV hairpin came to 6.4. In addition, the “Alpha-helical rate (%), second value of pair” value in data set [1] came to 63%. Further, in data set [1], the “Alpha-helical rate (%), first value of pair” value turned out to be 23%.

Regarding “LKKLLDabLLKKLLKWAG (LKKLL[Dab]LLKKLLKWAG-NH2; N-terminus assumed; SMILES CC(C)C[C@H](NC(=O)[C@H](CC(C)C)NC(=O)[C@H](CCCCN)NC(=O)[C@H](CCCCN)NC(=O)[C@H](CC(C)C)NC(=O)[C@H](CC(C)C)NC(=O)[C@H](CCN)NC(=O)[C@H](CC(C)C)NC(=O)[C@H](CC(C)C)NC(=O)[C@H](CCCCN)NC(=O)[C@H](CCCCN)NC(=O)[C@@H](N)CC(C)C)C(=O)N[C@@H](CCCCN)C(=O)N[C@@H](Cc1c[nH]c2ccccc12)C(=O)N[C@@H](C)C(=O)NCC(N)=O) [3e, third generation peptide, both faces modified]”, the Kd was 22 nM at RRE hairpin RNA, 14 nM at TAR hairpin RNA, 16 nM at 16S ribosomal RNA A-site and 0.62 nM on IRES domain IV hairpin. Further, the “differentiation coefficient (IRES)” value in the data set with IRES domain IV hairpin is listed as 28. The “Alpha-helical rate (%), second value of pair” value in data set [1] worked out at 45%. In addition, the “Alpha-helical rate (%), first value of pair” value in data set [1] is on record as 39%.

Consider “LKKLLDabLLOrnKLLDapLAG (LKKLL[Dab]LL[Orn]KLL[Dap]LAG-NH2; N-terminus assumed; SMILES CC(C)C[C@H](NC(=O)[C@H](CN)NC(=O)[C@H](CC(C)C)NC(=O)[C@H](CC(C)C)NC(=O)[C@H](CCCCN)NC(=O)[C@H](CCCN)NC(=O)[C@H](CC(C)C)NC(=O)[C@H](CC(C)C)NC(=O)[C@H](CCN)NC(=O)[C@H](CC(C)C)NC(=O)[C@H](CC(C)C)NC(=O)[C@H](CCCCN)NC(=O)[C@H](CCCCN)NC(=O)[C@@H](N)CC(C)C)C(=O)N[C@@H](C)C(=O)NCC(N)=O) [2m, second generation peptide, hydrophilic face modified]”, for which the Kd at RRE hairpin RNA was 19 nM; on TAR hairpin RNA it was 31 nM; on 16S ribosomal RNA A-site, 13 nM; on IRES domain IV hairpin, 4.3 nM. Further, in the data set with IRES domain IV hairpin, the “differentiation coefficient (IRES)” value amounted to 4.9. Besides, the “Alpha-helical rate (%), second value of pair” value in data set [1] turned out to be 69%. Also, in data set [1], the “Alpha-helical rate (%), first value of pair” value is on record as 49%.

On to “LKKLLDabLLOrnKLLKLAG (LKKLL[Dab]LL[Orn]KLLKLAG-NH2; N-terminus assumed; SMILES CC(C)C[C@H](NC(=O)[C@H](CCCCN)NC(=O)[C@H](CC(C)C)NC(=O)[C@H](CC(C)C)NC(=O)[C@H](CCCCN)NC(=O)[C@H](CCCN)NC(=O)[C@H](CC(C)C)NC(=O)[C@H](CC(C)C)NC(=O)[C@H](CCN)NC(=O)[C@H](CC(C)C)NC(=O)[C@H](CC(C)C)NC(=O)[C@H](CCCCN)NC(=O)[C@H](CCCCN)NC(=O)[C@@H](N)CC(C)C)C(=O)N[C@@H](C)C(=O)NCC(N)=O) [2j, second generation peptide, hydrophilic face modified]”, for which the Kd on RRE hairpin RNA stood at 21 nM; at TAR hairpin RNA, 10 nM; at 16S ribosomal RNA A-site, 14 nM; on IRES domain IV hairpin it was 2.4 nM. For the same substance, in the data set with IRES domain IV hairpin, the “differentiation coefficient (IRES)” value stood at 6.3. The “Alpha-helical rate (%), second value of pair” value in data set [1] was found to be 57%. In addition, the “Alpha-helical rate (%), first value of pair” value in data set [1] was 49%.

“LKKLLDabWLKKLLKLAG (LKKLL[Dab]WLKKLLKLAG-NH2; N-terminus assumed; SMILES CC(C)C[C@H](NC(=O)[C@H](CCCCN)NC(=O)[C@H](CC(C)C)NC(=O)[C@H](CC(C)C)NC(=O)[C@H](CCCCN)NC(=O)[C@H](CCCCN)NC(=O)[C@H](CC(C)C)NC(=O)[C@H](Cc1c[nH]c2ccccc12)NC(=O)[C@H](CCN)NC(=O)[C@H](CC(C)C)NC(=O)[C@H](CC(C)C)NC(=O)[C@H](CCCCN)NC(=O)[C@H](CCCCN)NC(=O)[C@@H](N)CC(C)C)C(=O)N[C@@H](C)C(=O)NCC(N)=O) [3a, third generation peptide, both faces modified]”: the Kd is 22 nM on RRE hairpin RNA, 19 nM at TAR hairpin RNA, 13 nM at 16S ribosomal RNA A-site and 1.8 nM on IRES domain IV hairpin. In addition, the “differentiation coefficient (IRES)” value in the data set with IRES domain IV hairpin turned out to be 10. Besides, the “Alpha-helical rate (%), second value of pair” value in data set [1] is 55%. Moreover, in data set [1], the “Alpha-helical rate (%), first value of pair” value is on record as 29%.
